Entries after “also recorded” stand apart in the source; their conditions may differ.
Legend:
[1] = serum ALT, marker of hepatocellular injury, in woodchucks; assay type: in vivo, woodchuck
Protocol: All experimental procedures involving woodchucks were performed under protocols approved by the Cornell University Institutional Animal Care and Use Committee. Woodchucks were born to WHV-negative females in environmentally controlled laboratory animal facilities and inoculated at 3 days of age with 5 million infectious doses of a standardized WHV inoculum (23). Woodchucks were selected as chronic WHV carriers based on persistent detection of WHV surface antigen (WHsAg) and WHV DNA in serum prior to treatments. All animals were free of HCC at the beginning of the study as determined by hepatic ultrasound examination and normal serum activity of γ-glutamyl-transferase (GGT).
Twenty adult chronically infected woodchucks were stratified by age, sex, body weight, serum viral load, and serum GGT activity into four treatment groups of five animals each. Drug was administered orally at 100 mg/kg (in sterile water), chosen after an initial dose finding trial. […] Prior to alum adsorption, vaccine was tested in naïve, WHV-susceptible animals and no residual virus was detected. […]
Serum WHV DNA was measured quantitatively by dot blot hybridization (assay sensitivity, ≧1.0×10^7 WHV genome equivalents per ml [WHVge/ml]) (25). Serum WHsAg, antibodies to WHV core antigen (anti-WHc), and WHV surface antigen (anti-WHs) were determined with WHV-specific enzyme immunoassays (26). […]

glucosidases = test: glycan analysis of serum: tri-glucosylated glycans (Glu3); assay type: in vivo, woodchuck
Protocol: Sample preparation for glycan analysis was performed essentially as described (27). HPLC separation was performed using the Waters Alliance HPLC system with a Waters fluorescence detector, and quantified using the Millenium Chromatography Manager (Waters Corporation, Milford, Mass.). Tri-glucosylated structures were identified by comparison to known standards (27, 28).
In vivo, levels of circulating glycoproteins with N-glycans bearing three terminal glucose residues reflect the extent of glucosidase inhibition (11). […] Note that BuCas-treated animals that were negative for tri-glucosylated glycans at the 10-week time point were positive at one or more other time points (data not shown). No tri-glucosylated glycans were detected in any drug-naïve animals (Table 2).

[2] = serum drug level after single oral dose in woodchucks; assay type: in vivo; settings: woodchuck, single oral dose of 100 mg/kg
Protocol: Twenty adult chronically infected woodchucks were stratified by age, sex, body weight, serum viral load, and serum GGT activity into four treatment groups of five animals each. Drug was administered orally at 100 mg/kg (in sterile water), chosen after an initial dose finding trial. […] The subunit vaccine consisted of 22-nm WHsAg particles, purified by zonal ultracentrifugation from serum of WHV7P1-infected WHV carriers (24), inactivated with formalin, and adsorbed onto alum. Prior to alum adsorption, vaccine was tested in naïve, WHV-susceptible animals and no residual virus was detected. Purified WHsAg was not pretreated with enzymes that remove preS sequences.

woodchuck PBMCs = test: PBMC proliferation assay (stimulation index) with PBMCs of treated woodchucks; assay type: in vivo
Protocol: T cell responses against WHY were determined using in vitro stimulators at concentrations optimal for cultures of woodchuck PBMCs (29, 30). Stimulators consisted of native 22-nm WHsAg (2 μg/ml), recombinant WHcAg (2 μg/ml), or synthetic peptides (10 μg/ml) corresponding to either native viral sequences or predicted N-de-glycosylated sequences (Table 1, below).
The in vitro proliferation assay using woodchuck PBMCs labeled dividing cells with [2-^3H]adenine (Amersham Pharmacia Biotech, Inc., Arlington Heights, Ill.). Woodchuck PBMCs were isolated from whole blood and stimulated as described (30, 31). Counts per minute of triplicate PBMC cultures were averaged and expressed as a stimulation index (SI) by dividing the average sample counts per minute in the presence of the stimulator by that observed in the absence of stimulator (six replicates). A SI value of ≧3.1 was considered to represent a positive, specific T-cell response.
Woodchucks chronically infected with WHV experienced significant immunological responses to envelope proteins following immunization with WHsAg-containing vaccines, especially in the context of low viral and antigen loads following treatment with an effective antiviral agent, 1-(2-fluoro-5-methyl-beta-L-arabinofuranosyl)-uracil (L-FMAU) (29, 35). […] Animals were scored as positive if cells proliferated above the cut-off value of 2: 3.1. […]

CCCC(=O)O[C@H]1CN2CC[C@H](O)[C@@H]2[C@@H](O)[C@H]1O [BuCas, 6-O-butanoyl castanospermine]
ALT, Av(range) ([1]; week 0 (baseline)): 7.4 (4-9) Units/L | ALT, Av(range) ([1]; week 10): 15.6 (10-22) Units/L | glycan processing (tri-glucosylated glycans in sera), in words (glucosidases; sera of treated woodchucks): impaired glycan processing | Glu3, % (tri-glucosylated glycans in serum) (glucosidases; week 10): .49 (0-.90) % | Cmax, range [2]: 5.0 to 12.1 µg/mL | average observed Cmax [2]: 7.7 µg/mL | PBMC response to paired N-peptides versus D-peptides (woodchuck PBMCs; glycosylation sequons at amino acids 4 and 146, from week 8 on, FIG. 4): responded more strongly to D-peptides versus N-peptides | PBMC proliferation in response to WHV HBs antigens (woodchuck PBMCs; positive if SI ≧3.1, FIG. 3): resulted in proliferation in response to WHV HBs antigens; also recorded: stimulated cellular immunity to viral antigen

Source: US20160051665A1, “INDUCTION OF IMMUNE RESPONSE” (priority 2010, published 2016)
